pIC50: −log10 of the molar value.
Tests used:
[1] = target: T1, HDAC1 (Homo sapiens, UniProt Q13547); assay: HDAC enzyme activity inhibition (in vitro), HDAC1 Fluorimetric Drug Discovery Assay Kit; assay type: biochemical; details: samples at 100, 1000 and 10000 nM; 37° C. 60 minutes; fluorescence Ex 390, Em 460; read-out: HDAC1 IC50
T1 construct: purchased Enzolifesciences BML-AK511
In short: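 Compounds at 100, 1000, 10000 nM (HDAC1) or 0.1, 1, 10, 100, 1000 nM (HDAC6); 37° C, 60 min; developer, 37° C, 30 min; fluorescence Ex 390/Em 460.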

[2] = target: T2, HDAC6 human recombinant (Homo sapiens, UniProt Q9UBN7); assay: HDAC enzyme activity inhibition (in vitro), HDAC6 assay; assay type: biochemical; details: samples at 0.1, 1, 10, 100 and 1000 nM; 37° C. 60 minutes; fluorescence Ex 390, Em 460; read-out: HDAC6 IC50
T2 construct: purchased Calbiochem 382180
T2 sequence (Q9UBN7 1-1215): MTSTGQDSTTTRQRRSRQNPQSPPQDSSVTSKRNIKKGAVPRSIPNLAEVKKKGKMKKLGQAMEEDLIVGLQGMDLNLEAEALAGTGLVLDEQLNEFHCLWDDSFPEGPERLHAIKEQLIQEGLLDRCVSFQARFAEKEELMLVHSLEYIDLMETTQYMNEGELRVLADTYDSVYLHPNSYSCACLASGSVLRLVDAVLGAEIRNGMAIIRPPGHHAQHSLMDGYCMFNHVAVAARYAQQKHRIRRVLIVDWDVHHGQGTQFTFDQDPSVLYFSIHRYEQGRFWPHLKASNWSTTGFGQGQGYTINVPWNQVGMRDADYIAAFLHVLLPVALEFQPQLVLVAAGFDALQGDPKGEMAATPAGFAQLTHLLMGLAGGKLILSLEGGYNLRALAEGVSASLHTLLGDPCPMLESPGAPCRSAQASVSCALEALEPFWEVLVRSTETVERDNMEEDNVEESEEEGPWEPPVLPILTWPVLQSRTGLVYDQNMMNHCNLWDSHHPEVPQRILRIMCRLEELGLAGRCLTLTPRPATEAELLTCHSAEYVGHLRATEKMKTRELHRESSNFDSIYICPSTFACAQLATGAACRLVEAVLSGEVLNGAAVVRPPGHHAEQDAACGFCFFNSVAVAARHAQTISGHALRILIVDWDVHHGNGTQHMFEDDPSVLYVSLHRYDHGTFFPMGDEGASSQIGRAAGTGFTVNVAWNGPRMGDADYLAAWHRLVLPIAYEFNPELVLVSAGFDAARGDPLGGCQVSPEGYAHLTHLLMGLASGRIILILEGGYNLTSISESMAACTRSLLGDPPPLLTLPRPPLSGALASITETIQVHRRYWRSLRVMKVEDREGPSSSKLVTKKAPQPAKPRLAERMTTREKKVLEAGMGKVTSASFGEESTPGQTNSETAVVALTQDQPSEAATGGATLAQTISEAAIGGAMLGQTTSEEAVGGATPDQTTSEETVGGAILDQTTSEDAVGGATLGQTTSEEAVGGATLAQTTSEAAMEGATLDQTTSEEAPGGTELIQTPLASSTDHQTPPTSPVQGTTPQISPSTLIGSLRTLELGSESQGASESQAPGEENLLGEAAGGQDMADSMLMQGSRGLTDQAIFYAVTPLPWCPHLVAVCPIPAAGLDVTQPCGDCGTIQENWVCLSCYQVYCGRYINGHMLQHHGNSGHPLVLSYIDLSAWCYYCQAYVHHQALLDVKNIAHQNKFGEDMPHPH
In short: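 HDAC6 human recombinant enzyme with fluorimetric substrate; […]. Reaction 60 min at 37° C, then developer 30 min at 37° C; fluorescence read at Ex 390/Em 460.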

T1 sequence (Q13547 whole entry): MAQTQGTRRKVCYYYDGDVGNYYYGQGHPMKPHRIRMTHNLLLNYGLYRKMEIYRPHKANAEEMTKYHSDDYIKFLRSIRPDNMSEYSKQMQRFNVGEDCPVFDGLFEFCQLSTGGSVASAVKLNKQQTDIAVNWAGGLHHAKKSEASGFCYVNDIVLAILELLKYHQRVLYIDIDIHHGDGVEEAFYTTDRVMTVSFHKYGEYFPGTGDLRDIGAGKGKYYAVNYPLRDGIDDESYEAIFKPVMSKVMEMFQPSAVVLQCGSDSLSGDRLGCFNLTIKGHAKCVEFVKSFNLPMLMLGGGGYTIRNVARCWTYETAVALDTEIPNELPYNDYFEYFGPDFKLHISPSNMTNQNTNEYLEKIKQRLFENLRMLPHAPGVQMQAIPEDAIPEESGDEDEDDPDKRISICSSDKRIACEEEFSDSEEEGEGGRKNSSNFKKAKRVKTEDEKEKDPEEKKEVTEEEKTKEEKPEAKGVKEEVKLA

O=c1n(Cc2ccc(-c3nnc(C(F)F)o3)cn2)c2cc(F)c(N3CCN(Cc4cn[nH]c4)CC3)cc2n1C1COC1 [Compound 323, 5-(4-((1H-pyrazole-4-yl)methyl)piperazine-1-yl)-1-((5-(5-(difluoromethyl)-1,3,4-oxadiazole-2-yl)pyridine-2-yl)methyl)-6-fluoro-3-(oxetan-3-yl)-1,3-dihydro-2H-benzo[d]imidazole-2-one]
pIC50 [1]: < 5.00 | pIC50 [2]: 7.46

O=c1n(Cc2ccc(-c3nnc(C(F)F)o3)cn2)c2cc(F)c(N3CCN(Cc4cccnc4)CC3)cc2n1C1COC1 [Compound 324, 1-((5-(5-(difluoromethyl)-1,3,4-oxadiazole-2-yl)pyridine-2-yl)methyl)-6-fluoro-3-(oxetan-3-yl)-5-(4-(pyridine-3-ylmethyl)piperazine-1-yl)-1,3-dihydro-2H-benzo[d]imidazole-2-one]
pIC50 [1]: < 5.00 | pIC50 [2]: 7.38

O=c1n(Cc2ccc(-c3nnc(C(F)F)o3)cn2)c2cc(F)c(N3CCN(CC(F)(F)F)CC3)cc2n1C1COC1 [Compound 325]
pIC50 [1]: < 5.00 | pIC50 [2]: 7.15

CN(C)CCn1c(=O)n(Cc2ccc(-c3nnc(C(F)F)o3)cn2)c2cc(F)c(-c3cccnc3)cc21 [Compound 326, 1-((5-(5-(difluoromethyl)-1,3,4-oxadiazole-2-yl)pyridine-2-yl)methyl)-3-(2-(dimethylamino)ethyl)-6-fluoro-5-(pyridine-3-yl)-1,3-dihydro-2H-benzo[d]imidazole-2-one]
pIC50 [1]: < 5.00 | pIC50 [2]: 6.80

CN(C)CCn1c(=O)n(Cc2ccc(-c3nnc(C(F)F)o3)cn2)c2cc(F)c(-c3ccncc3)cc21 [Compound 327, 1-((5-(5-(difluoromethyl)-1,3,4-oxadiazole-2-yl)pyridine-2-yl)methyl)-3-(2-(dimethylamino)ethyl)-6-fluoro-5-(pyridine-4-yl)-1,3-dihydro-2H-benzo[d]imidazole-2-one]
pIC50 [1]: < 5.00 | pIC50 [2]: 7.24

CN1CCN(c2cc3c(cc2F)n(Cc2ccc(-c4nnc(C(F)F)o4)cn2)c(=O)n3-c2cccnc2)CC1 [Compound 328, 1-((5-(5-(difluoromethyl)-1,3,4-oxadiazole-2-yl)pyridine-2-yl)methyl)-6-fluoro-5-(4-methylpiperazine-1-yl)-3-(pyridine-3-yl)-1,3-dihydro-2H-benzo[d]imidazole-2-one]
pIC50 [1]: < 5.00 | pIC50 [2]: 7.07

O=c1n(Cc2ccc(-c3nnc(C(F)F)o3)cn2)c2cc(F)c(N3CCN(C4COC4)CC3)cc2n1-c1cccnc1 [Compound 329, 1-((5-(5-(difluoromethyl)-1,3,4-oxadiazole-2-yl)pyridine-2-yl)methyl)-6-fluoro-5-(4-(oxetan-3-yl)piperazine-1-yl)-3-(pyridine-3-yl)-1,3-dihydro-2H-benzo[d]imidazole-2-one]
pIC50 [1]: < 5.00 | pIC50 [2]: 6.90

Cn1c(=O)n(Cc2ccc(-c3nnc(C(F)F)o3)cn2)c2cc(F)c(-c3ccc(CN4CCOCC4)nc3)cc21 [Compound 330, 1-((5-(5-(difluoromethyl)-1,3,4-oxadiazole-2-yl)pyridine-2-yl)methyl)-6-fluoro-3-methy 1-5-(6-(morpholinomethyl)pyridine-3-yl)-1,3-dihydro-2H-benzo[d]imidazole-2-one]
pIC50 [1]: < 5.00 | pIC50 [2]: 7.66

CN1CCC(c2ccc3c(c2)sc(=O)n3Cc2ccc(-c3nnc(C(F)F)o3)cn2)CC1 [Compound 331, 3-((5-(5-(difluoromethyl)-1,3,4-oxadiazole-2-yl)pyridine-2-yl)methyl)-6-(1-methylpiperidine-4-yl)benzo[d]thiazole-2(3H)-one]
pIC50 [1]: < 5.00 | pIC50 [2]: 7.21

O=c1oc2cc(-c3ccc(CN4CCOCC4)nc3)c(F)cc2n1Cc1ccc(-c2nnc(C(F)F)o2)cn1 [Compound 332, 3-((5-(5-(difluoromethyl)-1,3,4-oxadiazole-2-yl)pyridine-2-yl)methyl)-5-fluoro-6-(6-(morpholinomethyl)pyridine-3-yl)benzo[d]oxazole-2(3H)-one]
pIC50 [1]: < 5.00 | pIC50 [2]: 7.37

O=c1sc2cc(-c3ccc(CN4CCOCC4)nc3)ccc2n1Cc1ccc(-c2nnc(C(F)F)o2)cn1 [Compound 333, 3-((5-(5-(difluoromethyl)-1,3,4-oxadiazole-2-yl)pyridine-2-yl)methyl)-6-(6-(morpholinomethyl)pyridine-3-yl)benzo[d]thiazole-2(3H)-one]
pIC50 [1]: < 5.00 | pIC50 [2]: 7.42

CN1CCC(c2cc3oc(=O)n(Cc4ccc(-c5nnc(C(F)F)o5)cn4)c3cc2F)CC1 [Compound 334, 3-((5-(5-(difluoromethyl)-1,3,4-oxadiazole-2-yl)pyridine-2-yl)methyl)-5-fluoro-6-(1-methylpiperidine-4-yl)benzo[d]oxazole-2(3H)-one]
pIC50 [1]: < 5.00 | pIC50 [2]: 7.19

CC(C)N1CCC(c2cc3oc(=O)n(Cc4ccc(-c5nnc(C(F)F)o5)cn4)c3cc2F)CC1 [Compound 335, 3-((5-(5-(difluoromethyl)-1,3,4-oxadiazole-2-yl)pyridine-2-yl)methyl)-5-fluoro-6-(1-isopropylpiperidine-4-yl)benzo[d]oxazole-2(3H)-one]
pIC50 [1]: < 5.00 | pIC50 [2]: 7.12

O=c1oc2cc(C3CCN(C4COC4)CC3)c(F)cc2n1Cc1ccc(-c2nnc(C(F)F)o2)cn1 [Compound 336, 3-((5-(5-(difluoromethyl)-1,3,4-oxadiazole-2-yl)pyridine-2-yl)methyl)-5-fluoro-6-(1-(oxetan-3-yl)piperidine-4-yl)benzo[d]oxazole-2(3H)-one]
pIC50 [1]: < 5.00 | pIC50 [2]: 7.36

CC(C)(C)OC(=O)N1CCN(c2ncc(-c3cc4oc(=O)n(Cc5ccc(-c6nnc(C(F)F)o6)cn5)c4cc3F)cn2)CC1 [Compound 337, tert-butyl 4-(5-(3-((5-(5-(difluoromethyl)-1,3,4-oxadiazole-2-yl)pyridine-2-yl)methyl)-5-fluoro-2-oxo-2,3-dihydrobenzo[d]oxazole-6-yl)pyrimidine-2-yl)piperazine-1-carboxylate]
pIC50 [1]: < 5.00 | pIC50 [2]: 6.17

CN1CCN(c2ncc(-c3cc4oc(=O)n(Cc5ccc(-c6nnc(C(F)F)o6)cn5)c4cc3F)cn2)CC1 [Compound 338, 3-((5-(5-(difluoromethyl)-1,3,4-oxadiazole-2-yl)pyridine-2-yl)methyl)-5-fluoro-6-(2-(4-methylpiperazine-1-yl)pyrimidine-5-yl)benzo[d]oxazole-2(3H)-one]
pIC50 [1]: < 5.00 | pIC50 [2]: 7.33

O=c1oc2cc(-c3cnc(N4CCN(C5COC5)CC4)nc3)c(F)cc2n1Cc1ccc(-c2nnc(C(F)F)o2)cn1 [Compound 339, 3-((5-(5-(difluoromethyl)-1,3,4-oxadiazole-2-yl)pyridine-2-yl)methyl)-5-fluoro-6-(2-(4-(oxetan-3-yl)piperazine-1-yl)pyrimidine-5-yl)benzo[d]oxazole-2(3H)-one]
pIC50 [1]: < 5.00 | pIC50 [2]: 7.28

Cn1c(=O)n(Cc2ccc(-c3nnc(C(F)F)o3)cc2F)c2cc(F)c(-c3ccc(CN4CCOCC4)nc3)cc21 [Compound 340, 1-(4-(5-(difluoromethyl)-1,3,4-oxadiazole-2-yl)-2-fluorobenzyl)-6-fluoro-3-methyl-5-(6-(morpholinomethyl)pyridine-3-yl)-1,3-dihydro-2H-benzo[d]imidazole-2-one]
pIC50 [1]: < 5.00 | pIC50 [2]: 7.19

Cn1c(=O)n(Cc2ccc(-c3nnc(C(F)F)o3)cn2)c2cc(F)c(-c3cnc(N4CCN(C(=O)OC(C)(C)C)CC4)nc3)cc21 [Compound 341, tert-butyl 4-(5-(1-((5-(5-(difluoromethyl)-1,3,4-oxadiazole-2-yl)pyridine-2-yl)methyl)-6-fluoro-3-methyl-2-oxo-2,3-dihydro-1H-benzo[d]imidazole-5-yl)pyrimidine-2-yl)piperazine-1-carboxylate]
pIC50 [1]: < 5.00 | pIC50 [2]: 6.68
